Test results: patent US11382918B2, “Methods for treating Huntington's Disease” (PTC Therapeutics, Inc., priority 2017, dated 2022)

Tested on: Endogenous Huntingtin Protein (HTT)
Test: Endogenous Huntingtin Protein Assay (ELISA-based MSD electrochemiluminescence)
Type: cell-based
Conditions: Table 1
Procedure, shortened: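 HTT protein in lysates was measured by electrochemiluminescence on the MSD platform. Rabbit monoclonal 5656S followed by SULFO-TAG anti-rabbit antibody served for detection after overnight 4 °C capture with MAB2166 or the polyglutamine-directed MW1 antibody.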

Cn1cc2cc(-c3cc(=O)n4cc(N5CCNCC5)ncc4n3)ccc2n1 [compound 586, 2-(2-methyl-2H-indazol-5-yl)-7-(piperazin-1-yl)-4H-pyrazino[1,2-a]pyrimidin-4-one] and CN1CCN(c2cn3c(=O)cc(-c4ccc5nn(C)cc5c4)nc3cn2)CC1 [compound 589, 2-(2-methyl-2H-indazol-5-yl)-7-(4-methylpiperazin-1-yl)-4H-pyrazino[1,2-a]pyrimidin-4-one] fall in the same range of IC50: 3 to 33 µM for the first, 3 to 33 µM for the second.

First: Cc1cn2cc(-c3cc(=O)n4cc(C5CCNCC5)ncc4n3)cc(Cl)c2n1 [compound 587, 2-(8-chloro-2-methylimidazo[1,2-a]pyridin-6-yl)-7-(piperidin-4-yl)-4H-pyrazino[1,2-a]pyrimidin-4-one]
Second: Cc1cn2cc(-c3cc(=O)n4cc(C5CCNCC5)ncc4n3)cc(C)c2n1 [compound 588, 2-(2,8-dimethylimidazo[1,2-a]pyridin-6-yl)-7-(piperidin-4-yl)-4H-pyrazino[1,2-a]pyrimidin-4-one]
The IC50 of the first is lower: 0.1 to 0.5 µM for the first, 0.5 to 1 µM for the second.

CCN1CCN(c2cn3c(=O)cc(-c4ccc5nn(C)cc5c4)nc3cn2)CC1 [compound 590, 7-(4-ethylpiperazin-1-yl)-2-(2-methyl-2H-indazol-5-yl)-4H-pyrazino[1,2-a]pyrimidin-4-one] and Cn1cc2cc(-c3cc(=O)n4cc(N5CCN(CCO)CC5)ncc4n3)ccc2n1 [compound 591, 7-[4-(2-hydroxyethyl)piperazin-1-yl]-2-(2-methyl-2H-indazol-5-yl)-4H-pyrazino[1,2-a]pyrimidin-4-one] fall in the same range of IC50: 3 to 33 µM for the first, 3 to 33 µM for the second.

First: Cc1cn2cc(-c3cc(=O)n4cc(C5CCN(C)CC5)ncc4n3)cc(C)c2n1 [compound 592, 2-(2,8-dimethylimidazo[1,2-a]pyridin-6-yl)-7-(1-methylpiperidin-4-yl)-4H-pyrazino[1,2-a]pyrimidin-4-one]
Second: CCN1CCC(c2cn3c(=O)cc(-c4cc(C)c5nc(C)cn5c4)nc3cn2)CC1 [compound 593, 2-(2,8-dimethylimidazo[1,2-a]pyridin-6-yl)-7-(1-ethylpiperidin-4-yl)-4H-pyrazino[1,2-a]pyrimidin-4-one]
The IC50 of the first is higher: 3 to 33 µM for the first, 1 to 3 µM for the second.

Cc1cn2cc(-c3cc(=O)n4cc(C5CCN(CCO)CC5)ncc4n3)cc(C)c2n1 [compound 594, 2-(2,8-dimethylimidazo[1,2-a]pyridin-6-yl)-7-[1-(2-hydroxyethyl)piperidin-4-yl]-4H-pyrazino[1,2-a]pyrimidin-4-one] and Cc1cn2cc(-c3cc(=O)n4cc(C5CCN(CCO)CC5)ncc4n3)cc(Cl)c2n1 [compound 599, 2-(8-chloro-2-methylimidazo[1,2-a]pyridin-6-yl)-7-[1-(2-hydroxyethyl)piperidin-4-yl]-4H-pyrazino[1,2-a]pyrimidin-4-one] fall in the same range of IC50: 1 to 3 µM for the first, 1 to 3 µM for the second.

Cc1cn2cc(-c3cc(=O)n4cc(C5CCN(C(C)C)CC5)ncc4n3)cc(Cl)c2n1 [compound 595, 2-(8-chloro-2-methylimidazo[1,2-a]pyridin-6-yl)-7-[1-(propan-2-yl)piperidin-4-yl]-4H-pyrazino[1,2-a]pyrimidin-4-one] and Cc1cn2cc(-c3cc(=O)n4cc(C5CCN(C(C)C)CC5)ncc4n3)ccc2n1 [compound 627, 2-(2-methylimidazo[1,2-a]pyridin-6-yl)-7-[1-(propan-2-yl)piperidin-4-yl]-4H-pyrazino[1,2-a]pyrimidin-4-one] fall in the same range of IC50: 1 to 3 µM for the first, 1 to 3 µM for the second.

First: Cn1cc2cc(-c3cc(=O)n4cc(C5CCNCC5)ccc4n3)ccc2n1 [compound 606, 2-(2-methyl-2H-indazol-5-yl)-7-(piperidin-4-yl)-4H-pyrido[1,2-a]pyrimidin-4-one]
Second: CCN1CCC(c2ccc3nc(-c4ccc5nn(C)cc5c4)cc(=O)n3c2)CC1 [compound 612, 7-(1-ethylpiperidin-4-yl)-2-(2-methyl-2H-indazol-5-yl)-4H-pyrido[1,2-a]pyrimidin-4-one]
The IC50 of the first is higher: 3 to 33 µM for the first, 1 to 3 µM for the second. The second is the more potent here.

First: CC(C)N1CCC(c2ccc3nc(-c4ccc5nn(C)cc5c4)cc(=O)n3c2)CC1 [compound 608, 2-(2-methyl-2H-indazol-5-yl)-7-[1-(propan-2-yl)piperidin-4-yl]-4H-pyrido[1,2-a]pyrimidin-4-one]
Second: Cn1cc2cc(-c3cc(=O)n4cc(C5CCN(CCO)CC5)ccc4n3)ccc2n1 [compound 613, 7-[1-(2-hydroxyethyl)piperidin-4-yl]-2-(2-methyl-2H-indazol-5-yl)-4H-pyrido[1,2-a]pyrimidin-4-one]
The IC50 of the first is lower: 0.5 to 1 µM for the first, 1 to 3 µM for the second. The first is the more potent here.

First: Cc1cn2nc(-c3cc(=O)n4cc(N5CCC(NCCO)CC5)cc(C)c4n3)cc2c(C)n1 [compound 609, 2-(4,6-dimethylpyrazolo[1,5-a]pyrazin-2-yl)-7-{4-[(2-hydroxyethyl)amino]piperidin-1-yl}-9-methyl-4H-pyrido[1,2-a]pyrimidin-4-one]
Second: Cc1cn2nc(-c3cc(=O)n4cc(N5CCC6C(CCN6CCO)C5)ccc4n3)cc2c(C)n1 (stereo not shown) [compound 624, 2-(4,6-dimethylpyrazolo[1,5-a]pyrazin-2-yl)-7-[1-(2-hydroxyethyl)octahydro-5H-pyrrolo[3,2-c]pyridin-5-yl]-4H-pyrido[1,2-a]pyrimidin-4-one]
The IC50 of the first is higher: 3 to 33 µM for the first, 0.5 to 1 µM for the second. The second is the more potent here.

Cc1cn2cc(-c3cc(=O)n4cc(C5CCN(C6CCC6)CC5)ncc4n3)ccc2n1 [compound 628, 7-(1-cyclobutylpiperidin-4-yl)-2-(2-methylimidazo[1,2-a]pyridin-6-yl)-4H-pyrazino[1,2-a]pyrimidin-4-one] and Cc1cn2nc(-c3cc(=O)n4cc(C5CCN(C6CC6)CC5)ccc4n3)cc2c(C)n1 [compound 641, 7-(1-cyclopropylpiperidin-4-yl)-2-(4,6-dimethylpyrazolo[1,5-a]pyrazin-2-yl)-4H-pyrido[1,2-a]pyrimidin-4-one] fall in the same range of IC50: 3 to 33 µM for the first, 3 to 33 µM for the second.

CCc1nc(C)cn2nc(-c3cc(=O)n4cc(N5CCN(CCO)[C@H](C)C5)ccc4n3)cc12 [compound 632, 2-(4-ethyl-6-methylpyrazolo[1,5-a]pyrazin-2-yl)-7-[(3R)-4-(2-hydroxyethyl)-3-methylpiperazin-1-yl]-4H-pyrido[1,2-a]pyrimidin-4-one] and CCc1nc(C)cn2nc(-c3cc(=O)n4cc(N5CCN(CCCF)[C@H](C)C5)ccc4n3)cc12 [compound 667, 2-(4-ethyl-6-methylpyrazolo[1,5-a]pyrazin-2-yl)-7-[(3R)-4-(3-fluoropropyl)-3-methylpiperazin-1-yl]-4H-pyrido[1,2-a]pyrimidin-4-one] fall in the same range of IC50: 1 to 3 µM for the first, 1 to 3 µM for the second.

Compared with CCc1nc(C)cn2nc(-c3cc(=O)n4cc(N5C[C@@H](C)N[C@@H](C)C5)ccc4n3)cc12 [compound 633, 7-[(3R,5S)-3,5-dimethylpiperazin-1-yl]-2-(4-ethyl-6-methylpyrazolo[1,5-a]pyrazin-2-yl)-4H-pyrido[1,2-a]pyrimidin-4-one], CCc1nc(C)cn2nc(-c3cc(=O)n4cc(N5CCN[C@@H](C)C5)ccc4n3)cc12 [compound 635, 2-(4-ethyl-6-methylpyrazolo[1,5-a]pyrazin-2-yl)-7-[(3S)-3-methylpiperazin-1-yl]-4H-pyrido[1,2-a]pyrimidin-4-one] is lower in IC50: 3 to 33 µM for the first, 1 to 3 µM for the second. The second is the more potent here.

CCc1nc(C)cn2nc(-c3cc(=O)n4cc(N5CCCN(C)CC5)ccc4n3)cc12 [compound 636, 2-(4-ethyl-6-methylpyrazolo[1,5-a]pyrazin-2-yl)-7-(4-methyl-1,4-diazepan-1-yl)-4H-pyrido[1,2-a]pyrimidin-4-one] and CCc1nc(C)cn2nc(-c3cc(=O)n4cc(N5CCN(CCCF)CC5)ccc4n3)cc12 [compound 665, 2-(4-ethyl-6-methylpyrazolo[1,5-a]pyrazin-2-yl)-7-[4-(3-fluoropropyl)piperazin-1-yl]-4H-pyrido[1,2-a]pyrimidin-4-one] fall in the same range of IC50: 3 to 33 µM for the first, 3 to 33 µM for the second.

First: CCc1cc(-c2cc(=O)n3cc(N4CCNCC4)ccc3n2)cn2cc(C)nc12 [compound 637, 2-(8-ethyl-2-methylimidazo[1,2-a]pyridin-6-yl)-7-(piperazin-1-yl)-4H-pyrido[1,2-a]pyrimidin-4-one]
Second: CCc1cc(-c2cc(=O)n3cc(N4CCN[C@@H](C)C4)ccc3n2)cn2cc(C)nc12 [compound 639, 2-(8-ethyl-2-methylimidazo[1,2-a]pyridin-6-yl)-7-[(3S)-3-methylpiperazin-1-yl]-4H-pyrido[1,2-a]pyrimidin-4-one]
The IC50 of the first is lower: 0.5 to 1 µM for the first, 3 to 33 µM for the second. The first is the more potent here.

CCc1cc(-c2cc(=O)n3cc(N4CCN(CCO)[C@H](C)C4)ccc3n2)cn2cc(C)nc12 [compound 649, 2-(8-ethyl-2-methylimidazo[1,2-a]pyridin-6-yl)-7-[(3R)-4-(2-hydroxyethyl)-3-methylpiperazin-1-yl]-4H-pyrido[1,2-a]pyrimidin-4-one] and Cc1cn2nc(-c3cc(=O)n4cc(C5CCN(CCF)CC5)ccc4n3)cc2c(C)n1 [compound 662, 2-(4,6-dimethylpyrazolo[1,5-a]pyrazin-2-yl)-7-[1-(2-fluoroethyl)piperidin-4-yl]-4H-pyrido[1,2-a]pyrimidin-4-one] fall in the same range of IC50: 0.5 to 1 µM for the first, 0.5 to 1 µM for the second.

CCc1nc(C)cn2nc(-c3cc(=O)n4cc(C5CCNCC5)ncc4n3)cc12 [compound 653, 2-(4-ethyl-6-methylpyrazolo[1,5-a]pyrazin-2-yl)-7-(piperidin-4-yl)-4H-pyrazino[1,2-a]pyrimidin-4-one] and CCc1nc(C)cn2nc(-c3cc(=O)n4cc(C5CCN(C)CC5)ncc4n3)cc12 [compound 654, 2-(4-ethyl-6-methylpyrazolo[1,5-a]pyrazin-2-yl)-7-(1-methylpiperidin-4-yl)-4H-pyrazino[1,2-a]pyrimidin-4-one] cannot be ordered by IC50: under 0.1 µM for the first, under 0.1 µM for the second.

CCc1nc(C)cn2nc(-c3cc(=O)n4cc(C5CCN(CC)CC5)ncc4n3)cc12 [compound 655, 2-(4-ethyl-6-methylpyrazolo[1,5-a]pyrazin-2-yl)-7-(1-ethylpiperidin-4-yl)-4H-pyrazino[1,2-a]pyrimidin-4-one] and CCc1nc(C)cn2nc(-c3cc(=O)n4cc(C5CCNCC5)ccc4n3)cc12 [compound 656, 2-(4-ethyl-6-methylpyrazolo[1,5-a]pyrazin-2-yl)-7-(piperidin-4-yl)-4H-pyrido[1,2-a]pyrimidin-4-one] fall in the same range of IC50: 0.1 to 0.5 µM for the first, 0.1 to 0.5 µM for the second.
